Experimental data from patent US20090192101A1, “CANCER-SPECIFIC PROMOTERS” (priority 2006, published 2009).

Key:
[1] = test system: human normal and cancer cells; test: Transient luciferase assay, promoter activity compared to CMV promoter; format: cell-based; conditions: electroporation, 24 hrs
Method: The activities of claudin 4 and fatty acid synthase promoters were compared to CMV promoter. […] 1×10^6 cells were transfected with 2 μg pGl3-claudin 4 luciferase vector, as well as 0.2 μg pRL-TK as internal standards by electroporation. The luciferase activity was measured after 24 hrs. The activities of claudin 4 and fatty acid synthase promoters were much weaker than that of CMV promoter, and were about 0.5% and 5% of CMV expression activity, respectively.

[2] = test system: normal and other cancer cell lines; test: Transient luciferase assay of promoter activity (electroporation, 24 hrs); format: cell-based, human; conditions: 2 μg vector
Method: (§1) Cells (1×10^6) were transfected with 2 μg pGl3-FASN-luciferase vector, as well as 0.2 μg pRL-TK as internal standards by electroporation. The luciferase activity was measured after 24 hrs.
(§2) In FIG. 2, the promoter activities of tight junction protein Claudin 4 in human normal and cancer cells is shown. Cells (1×10^6) were transfected with 2 μg pGl3-claudin 4 luciferase vector, as well as 0.2 μg pRL-TK as internal standards by electroporation. The luciferase activity was measured after 24 hrs.
(§3) Cells (1×10^6) were transfected with 2 μg VISA-claudin 4 or VISA-fatty acid synthase promoter vector, as well as 0.2 μg pRL-TK as internal standards by electroporation. The luciferase activity was measured after 24 hrs.
(§4) 1×10^6 cells were transfected with 2 μg pGl3-FASN-luciferase vector, as well as 0.2 μg pRL-TK as internal standards by electroporation. The luciferase activity was measured after 24 hrs. […]
(§5) Expression of claudin 4 promoter was ascertained in breast cancer cell lines, normal cell lines, and other cancer cell lines by transient luciferase assay. […] The luciferase activity was measured after 24 hrs. […]
(§6) 1×10^6 cells were transfected with 2 μg pGL3-VISA-Claudin4-Luc or pGL3-VISA-FASN-Luc plasmid, as well as 0.2 μg pRL-TK as internal standards by electroporation. The luciferase activities were measured 24 hrs after transient transfection. […]

[3] = test system: breast cancer cell lines; test: as above; format: cell-based, human; conditions: breast cancer cell lines such as T47D, MDA-MB-435, 2 μg vector
Method: as §1, §2, §3, §4, §5, §6

FASN promoter: fatty acid synthase promoter driving luciferase in pGl3 vector
promoter activity as % of CMV expression activity [1]: ~5%
promoter expression (luciferase) in normal and other cancer cell lines [2]: low
promoter activity (luciferase) in breast cancer cell lines [3]: highly expressed
